Experimental findings from US7083959B2, “Therapeutic suppression of specific immune responses by administration of oligomeric forms of antigen of controlled chemistry” (The Johns Hopkins University, priority 1983, dated 2006) are described below.

One experiment concerns CAF1/J mice. As to the kind of experiment: Immunogenicity of monomeric and polymerized BSA or OVA without adjuvant, serum ELISA. Particulars: for serum anti-BSA IgM response: day 6, injected in saline without adjuvant, FIG. 40; for IgM and IgG anti-protein responses: administered without adjuvant. The class given is in vivo. As for the experimental part:
The molecular weight for each fraction was then determined by the use of the Model E analytical ultracentrifuge under equilibrium conditions. During this prolonged series of slow fractionation steps, molecules which were unstable to any of the many steps involved in processing, handling, or storage were fractionated away from the samples, yielding a series of preparations, each of which contained a relatively narrow range of molecular sizes of substantial time stability. These water soluble preparations were then injected into mice intra-peritoneally, without the use of any adjuvant, in order to determine their relative immunogenicity. The level of immune response was determined by measuring serum IgM or IgG antibody levels against BSA or OVA by standard solid state ELISA technique.
(In general: An ELISA detects its analyte on a solid surface through an enzyme-linked reagent.)

The subject of another experiment is anti-104 antibodies. As to the kind of experiment: Share of anti-104 antibodies directed against 159, direct binding ELISA and competition assay. Also noted: species or system mice. An excerpt: However this peptide can be recognized by B cells since BSA conjugates raise good antibody responses to 159. Furthermore, as mentioned above, a substantial portion of antibodies raised by the 104-conjugates are directed against 159 as indicated both by direct binding in ELISA assay and by competition assay using free 159 to inhibit binding of anti-104 antibodies to 104-gelatin.

Experiment [1] concerns Sera obtained from (NZBxNZW) F1 mice. As to the kind of experiment: Epitope mapping: binding of lupus mouse sera to histone H2B peptides. An excerpt:
This identification process, referred to herein as “epitope mapping”, involves the synthesis of various overlapping peptide fragments which are subsequently analyzed to establish regions of antigenicity. Clearly, the study of the entire H2B structure (125 amino acids) would require a very large amount of peptide synthesis. However, it is known from studies of SLE patients and mice with lupus-like disease that removal of the H2B N-terminal region with trypsin results in a loss of antigenicity (Portanova, J. P., et. al., J. Immunol. 38, 446–457, (1987)). Attention was, therefore, focussed on the synthesis of peptides derived from this region of histone H2B.

Where no end group is shown, it is not given here.

“BSA 70-mer: soluble highly polymerized BSA containing 70 BSA monomers, carbodiimide cross-linked (5000 kD)”: in the experiment with CAF1/J mice, the “serum anti-BSA IgM response” value was “capable of raising IgM antibodies even at very low doses”. On to “N-Ac-Cys-(ε-ACA)-Glu-Ala-His^331-Ala-Glu-Ile-Asn-Glu-Ala-Gly-Arg^339-CONH2 ({Ac-Cys-ε‑ACA}-EAHAEINEAGR-NH2; listed as Mus musculus) [compound 159, represents residues 331–339 of chicken ovalbumin (OVA)]”, for which the “share of antibody response to 104 attributed to 159” value in the experiment on anti-104 antibodies (104 arrayed on dextran or BSA) is given as 40–50%. In addition, the “share of 104 response competed with soluble 159” value in the experiment on anti-104 antibodies (solution phase competition assays (data not shown)) is reported as “up to 40%”. For the molecule “N-Acetyl-Ala-Pro-Lys-Lys-Gly-Ser-Lys-Lys-Ala-Val-Thr-Lys-Ala-Gln-Lys-Cys-CONH2 (Ac-APKKGSKKAVTKAQKC-NH2) [Lupus 4′]”, in experiment [1], the “binding of sera to peptide” value was “not”. Regarding “N-Acetyl-Cys-Ala-Pro-Lys-Lys-Gly-Ser-Lys-Lys-Ala-Val-Thr-Lys-Ala-Gln-Lys-CONH2 (Ac-CAPKKGSKKAVTKAQK-NH2) [Lupus 3′]”, in experiment [1], the “binding of sera to peptide” value is “not”. For “N-Acetyl-Cys-Lys-Ala-Val-Thr-Lys-Ala-Gln-Lys-Lys-Asp-Gly-Lys-Lys-Arg-Lys-CONH2 (Ac-CKAVTKAQKKDGKKRK-NH2) [Lupus 5′]”, the “binding of sera to peptide” value in experiment [1] is recorded as “not”.

“Polymeric BSA: BSA polymerized to itself through a water soluble carbodiimide, size fractionated”: the “IgM and IgG anti-protein responses” value in the experiment with CAF1/J mice is “considerable”. “Pro-Glu-Pro-Ala-Lys-Ser-Ala-Pro-Ala-Pro-Lys-Lys-Gly-Ser-Lys-Cys-CONH2 (PEPAKSAPAPKKGSKC-NH2) [Lupus 2′]”: the “binding of sera to peptide” value in experiment [1] is given as “bind strongly”. As for “monomeric BSA: monomeric (68 kD) bovine serum albumin [reference compound]”, the “serum anti-BSA IgM response” value in the experiment on CAF1/J mice is “requires substantially higher doses”. Further, the “anti-BSA IgG response” value in the experiment with CAF1/J mice (repeated injections in saline at doses up to 100 μg, FIG. 43) is “not very effective”.

B1: Polymeric OVA: OVA polymerized to itself by glutaraldehyde, size fractionated (protein, UniProt P01012 2-386, looked up)
Ovalbumin: GSIGAASMEFCFDVFKELKVHHANENIFYCPIAIMSALAMVYLGAKDSTRTQINKVVRFDKLPGFGDSIEAQCGTSVNVHSSLRDILNQITKPNDVYSFSLASRLYAEERYPILPEYLQCVKELYRGGLEPINFQTAADQARELINSWVESQTNGIIRNVLQPSSVDSQTAMVLVNAIVFKGLWEKAFKDEDTQAMPFRVTEQESKPVQMMYQIGLFRVASMASEKMKILELPFASGTMSMLVLLPDEVSGLEQLESIINFEKLTEWTSSNVMEERKIKVYLPRMKMEEKYNLTSVLMAMGITDVFSSSANLSGISSAESLKISQAVHAAHAEINEAGREVVGSAEAGVDAASVSEEFRADHPFLFCIKHIATNAVLFFGRCVSP
modifications: glutaraldehyde self-polymerized
notes: OVA polymerized to itself by glutaraldehyde, size fractionated
For B1, the “IgM and IgG anti-protein responses” value with CAF1/J mice is given as “considerable”.
